Assays:
[1] = biological target: T1, PSMA (Homo sapiens, UniProt Q04609); assay: In vitro binding signals of 68Ga labeled ligands in LNCaP tumor homogenates; details: Ga-68 radiolabeled ligands
T1 construct: 100 μL of freshly harvested PSMA cells; endogenous in cells; host or cells: 'PSMA cells' in the method

[2] = biological target: T1, PSMA; assay: In vitro competitive binding assay to determine IC50 to PSMA; details: LNCaP cells, [125I]MIP-1095 radioligand, 37° C. 1 h, mean±SD (n=4); read-out: PSMA binding affinities of cold ligands, IC50
Experimental: In Vitro Competitive Binding Assay to Determine IC50 to PSMA
In order to determine the binding affinity, in vitro competitive binding assays were performed. The LNCaP cells were incubated with 150,000 cpm of [^125I]MIP-1095 in the presence of 10 different concentrations of competing drugs. After incubation at 37° C. for 1 h, the bound and free radioactivity were separated by vacuum filtration through GF/B filter paper using a Brandel M-24R cell harvester followed by washing twice. Non-specific binding was defined with 10 μM PMPA. The cell bound radioactivity was measured with a gamma counter, 2470 Wizard^2 (Perkin-Elmer, IL). The IC50 values were calculated by fitting the data using a nonlinear regression algorithm (GraphPad Software).
The PSMA binding affinities were determined in a competitive binding assay using LNCaP human prostate carcinoma cells and the known high affinity PSMA ligand, [^125I]MIP-1095 as the radioligand. Data are expressed as mean±SD (n=4).

[3] = system: LNCaP tumor bearing nude mice; assay: Biodistribution of [68Ga]labeled ligand in PSMA positive tumor bearing nude mice; format: in vivo, mouse; details: 1 h post-injection, i.v., n = 3
Experimental: In a dish contained 5×10^6 cells of LNCaP in 50% Matrigel (Becton Dickinson, Heidelberg, Germany) were subcutaneously inoculated into the left shoulder of male 5- to 6-week-old CD-1 nu/nu mice (Charles River Laboratories). The tumors were allowed to grow for 8 weeks until approximately 0.5 cm^3 in size.
The ^68Ga-radiolabeled compounds were injected via tail vein (25 μCi per mouse; 0.1-0.2 nmol). At 1 h after injection, the animals were sacrificed. Organs of interest were dissected and weighed. The radioactivity was measured with a gamma counter and calculated as % ID/g.

[4] = system: PSMA-expressing LNCaP cells; assay: Cell binding and internalization; format: cell-based, human; details: 37° C.
Experimental: The cellular uptake and internalization kinetics of the [^68Ga]1a, [^68Ga]5a and [^68Ga]5b were determined using PSMA-expressing LNCaP cells. Furthermore, to be able to discriminate between total cellular activity (sum of membrane-associated and internalized activity) and internalized activity, all incubations were followed by a washing step with mild acid at 4° C. to remove specifically cell-surface bound radioligand by displacement.
LNCaP cells (in 6-well plates in triplicates) were incubated in RPMI-1640 medium with [^68Ga]1a, [^68Ga]5a or [^68Ga]5b for 0-2 h at 37° C. At the indicated time, the medium was removed and the cells were washed twice and then incubated with a mild acid buffer (50 mM glycine, 150 mM NaCl, pH 3.0) at 4° C. for 5 min. The supernatant (containing cell surface-bound radioactivity) was pooled and the cell pellet (containing internalized radioactivity) was collected with filter paper and then radioactivity in supernatant and cell pellet was counted on a gamma counter.
LNCaP cells were incubated with [^68Ga]1a, [^68Ga]5a and [^68Ga]5b for up to 2 h at 37° C. to determine whether the compound is internalized by endocytosis. The cells were then washed with a mild acid buffer to remove extracellularly bound compound.
Non specific binding (NSB) was evaluated by blocking with 20 μM PMPA. Specificity of cell uptake (SB) was calculated by subtracting the respective signals resulting from PMPA blocking. Values are expressed as % of applied radioactivity bound to 10^6 cells.

[5] = Biodistribution of radiotracers in normal mice; format: in vivo, mouse; details: for Biodistribution: Blood / Biodistribution: Bone / Biodistribution: Brain / Biodistribution: Heart / Biodistribution: Kidney / Biodistribution: Liver / Biodistribution: Lung / Biodistribution: Muscle / Biodistribution: Pancreas / Biodistribution: Skin / Biodistribution: Spleen: normal male mice
Experimental: Normal CD-1 male mice were injected via the tail vein with 35 μCi of [^68Ga] radiotracers (0.2 nmole of ligand). […] All organs were removed and blood was also collected. Each organ was weighed, and the tissue radioactivity was measured with an automated gamma counter (Wizard, Perkin Elmer). The % ID/g was calculated by comparison with samples of a standard dilution of the initial dose. All measurements were corrected for decay.

T1 sequence (Q04609 whole entry): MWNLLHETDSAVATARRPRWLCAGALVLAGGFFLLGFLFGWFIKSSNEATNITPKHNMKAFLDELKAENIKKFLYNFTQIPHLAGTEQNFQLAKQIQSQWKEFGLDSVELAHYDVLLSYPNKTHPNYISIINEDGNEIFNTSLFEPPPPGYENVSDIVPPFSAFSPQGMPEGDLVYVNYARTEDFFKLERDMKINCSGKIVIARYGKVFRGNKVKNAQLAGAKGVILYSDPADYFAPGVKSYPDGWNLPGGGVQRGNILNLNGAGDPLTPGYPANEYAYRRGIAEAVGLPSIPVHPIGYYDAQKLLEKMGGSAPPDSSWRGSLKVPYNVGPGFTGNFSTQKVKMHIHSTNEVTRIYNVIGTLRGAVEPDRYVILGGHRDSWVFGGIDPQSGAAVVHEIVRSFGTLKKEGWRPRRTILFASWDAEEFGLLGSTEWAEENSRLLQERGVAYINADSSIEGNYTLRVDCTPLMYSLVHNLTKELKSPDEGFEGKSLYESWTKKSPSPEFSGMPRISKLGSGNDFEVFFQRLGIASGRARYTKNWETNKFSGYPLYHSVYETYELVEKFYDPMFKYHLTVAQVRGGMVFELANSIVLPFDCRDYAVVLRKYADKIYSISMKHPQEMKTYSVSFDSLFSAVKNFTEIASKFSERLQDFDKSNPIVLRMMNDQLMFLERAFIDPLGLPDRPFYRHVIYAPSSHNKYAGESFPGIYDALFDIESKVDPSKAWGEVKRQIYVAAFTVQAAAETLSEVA

For `O=C(O)CCc1ccc(O)c(CN(CCN(CC(=O)O)Cc2cc(CCC(=O)NCC(=O)N[C@@H](Cc3ccc(OCC(=O)N[C@@H](Cc4ccccc4)C(=O)NCCCC[C@H](NC(=O)N[C@@H](CCC(=O)O)C(=O)O)C(=O)O)cc3)C(=O)O)ccc2O)CC(=O)O)c1` [Compound 5b, (4S,11S,15S)-4-Benzyl-1-(4-((S)-2-carboxy-2-(2-(3-(3-(((2-((5-(2-carboxyethyl)-2-hydroxybenzyl)(carboxymethyl)amino)ethyl)(carboxymethyl)amino)methyl)-4-hydroxyphenyl)propanamido)acetamido)ethyl)phenoxy)-2,5,13-trioxo-3,6,12,14-tetraazaheptadecane-11,15,17-tricarboxylic acid.], the “Specific binding (SB) SB = TB − NSB” value [1] was 10.54, the “Total binding (TB)” value ([1]; 37° C. 60 min) was 10.73 and the “Nonspecific binding (NSB)” value ([1]; with 1a (PSMA11) 10 μM) was 0.18.
`O=C(O)CC[C@H](NC(=O)N[C@@H](CCCCNC(=O)[C@H](Cc1ccccc1)NC(=O)COc1ccc(C[C@H](NC(=O)CNC(=O)c2cccc(I)c2)C(=O)O)cc1)C(=O)O)C(=O)O` [Compound 5c, (4S,11S,15S)-4-Benzyl-1-(4-((S)-2-carboxy-2-(2-(3-iodobenzamido)acetamido)ethyl)phenoxy)-2,5,13-trioxo-3,6,12,14-tetraazaheptadecane-11,15,17-tricarboxylic acid] gave an IC50 [2] of 5 ± 1.9 nM.
With `O=C(O)CC[C@H](NC(=O)N[C@@H](CCCCNC(=O)[C@H](Cc1ccccc1)NC(=O)COc1ccc(C[C@H](NC(=O)CNC(=O)c2ccccc2I)C(=O)O)cc1)C(=O)O)C(=O)O` [Compound 5d, (4S,11S,15S)-4-Benzyl-1-(4-((S)-2-carboxy-2-(2-(2-iodobenzamido)acetamido)ethyl)phenoxy)-2,5,13-trioxo-3,6,12,14-tetraazaheptadecane-11,15,17-tricarboxylic acid] the IC50 [2] was 5.3 ± 2.2 nM.
In the case of `O=C(O)CC[C@H](NC(=O)N[C@@H](CCCCNC(=O)[C@H](Cc1ccccc1)NC(=O)COc1ccc(C[C@H](NC(=O)CNC(=O)c2ccc(F)nc2)C(=O)O)cc1)C(=O)O)C(=O)O` [Compound 5e], the IC50 [2] is reported as 6 ± 1.8 nM.
Work on `O=C(O)CC[C@H](NC(=O)N[C@@H](CCCCNC(=O)Nc1ccc(I)cc1)C(=O)O)C(=O)O` [MIP-1095, reference compound] yielded an IC50 [2] of 4.6 ± 1.4 nM.
For `O=C(O)CC[C@H](NC(=O)N[C@@H](CCCCNC(=O)[C@H](Cc1ccccc1)NC(=O)COc1ccc(C[C@H](NC(=O)CNC(=O)C[N+]23CC[N+]45CC[N+]6(CC(=O)O)CC[N+]7(CC2)CC(=O)[O][68Ga-3]6347[O]C(=O)C5)C(=O)O)cc1)C(=O)O)C(=O)O` (some centres unmarked) [[^68Ga]5a], the “Organ distribution: Blood” value [3] was 0.36 ± 0.05 % dose/g, the “Organ distribution: Bone” value [3] was 0.11 ± 0.04 % dose/g and the “Organ distribution: Brain” value [3] was 0.03 ± 0.01 % dose/g. For the same compound, the “Organ distribution: Heart” value [3] was 0.19 ± 0.04 % dose/g, the “Organ distribution: Liver” value [3] was 0.36 ± 0.10 % dose/g and the “Organ distribution: Lung” value [3] was 0.46 ± 0.13 % dose/g. The “Organ distribution: Muscle” value [3] was 0.21 ± 0.15 % dose/g, the “Organ distribution: Pancreas” value [3] was 0.20 ± 0.05 % dose/g and the “Organ distribution: Skin” value [3] was 0.33 ± 0.17 % dose/g. The “Organ distribution: Spleen” value [3] was 0.70 ± 0.38 % dose/g, the “Cell surface binding activity” value ([4]; 5 min) was 1.67 ± 0.24 % ID/10^6 cells and the Internalized activity ([4]; 5 min) was 0.21 ± 0.04 % ID/10^6 cells. For the same compound, the “Cell surface binding activity” value ([4]; 15 min) was 1.92 ± 0.24 % ID/10^6 cells, the Internalized activity ([4]; 15 min) was 1.14 ± 0.21 % ID/10^6 cells and the “Cell surface binding activity” value ([4]; 30 min) was 1.96 ± 0.27 % ID/10^6 cells. The Internalized activity ([4]; 30 min) was 2.55 ± 0.42 % ID/10^6 cells, the “Cell surface binding activity” value ([4]; 60 min) was 1.89 ± 0.13 % ID/10^6 cells and the Internalized activity ([4]; 60 min) was 3.70 ± 0.44 % ID/10^6 cells. The “Cell surface binding activity” value ([4]; 90 min) was 2.33 ± 0.01 % ID/10^6 cells, the Internalized activity ([4]; 90 min) was 5.40 ± 0.13 % ID/10^6 cells and the “Cell surface binding activity” value ([4]; 120 min) was 2.03 ± 0.23 % ID/10^6 cells. The Internalized activity ([4]; 120 min) was 5.43 ± 1.20 % ID/10^6 cells.
In the case of `O=C(O)CC[C@H](NC(=O)N[C@@H](CCCCNC(=O)CCCCCNC(=O)CCc1ccc(O)c(CN(CCN(CC(=O)O)Cc2cc(CCC(=O)NCCNC(=O)CN3CCN4CCN5CCN(CC3)CC(=O)[O][177Lu]([O]C(=O)C4)[O]C(=O)C5)ccc2O)CC(=O)O)c1)C(=O)O)C(=O)O` [[^177Lu]1g], the “Biodistribution: Blood” value ([5]; 0.5 hr) is reported as 0.64 ± 0.22 % dose/g, the “Biodistribution: Bone” value ([5]; 0.5 hr) is reported as 0.22 ± 0.05 % dose/g and the “Biodistribution: Brain” value ([5]; 0.5 hr) is reported as 0.03 ± 0.01 % dose/g. The “Biodistribution: Heart” value ([5]; 0.5 hr) was 0.28 ± 0.09 % dose/g, the “Biodistribution: Kidney” value ([5]; 0.5 hr) was 40.6 ± 10.5 % dose/g and the “Biodistribution: Liver” value ([5]; 0.5 hr) was 0.23 ± 0.02 % dose/g. For the same compound, the “Biodistribution: Lung” value ([5]; 0.5 hr) was 0.80 ± 0.38 % dose/g, the “Biodistribution: Muscle” value ([5]; 0.5 hr) was 0.27 ± 0.07 % dose/g and the “Biodistribution: Pancreas” value ([5]; 0.5 hr) was 0.40 ± 0.07 % dose/g. For the same compound, the “Biodistribution: Skin” value ([5]; 0.5 hr) was 0.56 ± 0.12 % dose/g, the “Biodistribution: Spleen” value ([5]; 0.5 hr) was 0.78 ± 0.37 % dose/g and the “Biodistribution: Blood” value ([5]; 1 hr) was 0.15 ± 0.05 % dose/g. The “Biodistribution: Bone” value ([5]; 1 hr) was 0.11 ± 0.01 % dose/g, the “Biodistribution: Brain” value ([5]; 1 hr) was 0.01 ± 0.00 % dose/g and the “Biodistribution: Heart” value ([5]; 1 hr) was 0.14 ± 0.01 % dose/g. The “Biodistribution: Kidney” value ([5]; 1 hr) was 30.3 ± 3.50 % dose/g, the “Biodistribution: Liver” value ([5]; 1 hr) was 0.12 ± 0.02 % dose/g and the “Biodistribution: Lung” value ([5]; 1 hr) was 0.45 ± 0.13 % dose/g. The “Biodistribution: Muscle” value ([5]; 1 hr) was 0.11 ± 0.03 % dose/g, the “Biodistribution: Pancreas” value ([5]; 1 hr) was 0.32 ± 0.183 % dose/g and the “Biodistribution: Skin” value ([5]; 1 hr) was 0.21 ± 0.04 % dose/g. For the same compound, the “Biodistribution: Spleen” value ([5]; 1 hr) was 0.92 ± 0.24 % dose/g, the “Biodistribution: Blood” value ([5]; 6 hr) was 0.01 ± 0.00 % dose/g and the “Biodistribution: Bone” value ([5]; 6 hr) was 0.12 ± 0.01 % dose/g. For the same compound, the “Biodistribution: Brain” value ([5]; 6 hr) was 0.01 ± 0.00 % dose/g, the “Biodistribution: Heart” value ([5]; 6 hr) was 0.02 ± 0.01 % dose/g and the “Biodistribution: Kidney” value ([5]; 6 hr) was 17.8 ± 4.07 % dose/g. The “Biodistribution: Liver” value ([5]; 6 hr) was 0.07 ± 0.01 % dose/g, the “Biodistribution: Lung” value ([5]; 6 hr) was 0.11 ± 0.00 % dose/g and the “Biodistribution: Muscle” value ([5]; 6 hr) was 0.03 ± 0.00 % dose/g. For the same compound, the “Biodistribution: Pancreas” value ([5]; 6 hr) was 0.08 ± 0.03 % dose/g, the “Biodistribution: Skin” value ([5]; 6 hr) was 0.06 ± 0.00 % dose/g and the “Biodistribution: Spleen” value ([5]; 6 hr) was 0.28 ± 0.08 % dose/g. The “Biodistribution: Blood” value ([5]; 24 hr) was 0.01 ± 0.00 % dose/g, the “Biodistribution: Bone” value ([5]; 24 hr) was 0.12 ± 0.01 % dose/g and the “Biodistribution: Brain” value ([5]; 24 hr) was 0.01 ± 0.00 % dose/g. For the same compound, the “Biodistribution: Heart” value ([5]; 24 hr) was 0.01 ± 0.00 % dose/g, the “Biodistribution: Kidney” value ([5]; 24 hr) was 4.02 ± 1.34 % dose/g and the “Biodistribution: Liver” value ([5]; 24 hr) was 0.03 ± 0.00 % dose/g. The “Biodistribution: Lung” value ([5]; 24 hr) was 0.03 ± 0.01 % dose/g, the “Biodistribution: Muscle” value ([5]; 24 hr) was 0.01 ± 0.00 % dose/g and the “Biodistribution: Pancreas” value ([5]; 24 hr) was 0.02 ± 0.01 % dose/g. For the same compound, the “Biodistribution: Skin” value ([5]; 24 hr) was 0.04 ± 0.01 % dose/g, the “Biodistribution: Spleen” value ([5]; 24 hr) was 0.04 ± 0.00 % dose/g and the “Initial uptakes in the kidneys, in words” value ([5]; normal mice) was “comparable to that of [^68Ga]1g”.

Source: US10688200B2, “Urea-based prostate specific membrane antigen (PSMA) inhibitors for imaging and therapy” (Five Eleven Pharma Inc., priority 2015, dated 2020)
